In ChEMBL document CHEMBL4043275, “Design, synthesis and biological evaluation of phthalimide-alkylamine derivatives as balanced multifunctional cholinesterase and monoamine oxidase-B inhibitors for the treatment of Alzheimer's disease” (Bioorg Med Chem Lett, 2017):
Active and inactive are the calls of the source. No cut-off for these calls is given here.

Assays:
[1] = biological target: T1, Acetylcholinesterase (Rattus norvegicus) (UniProt P37136); assay: Inhibition of rat cortex homogenate AChE at 50 uM using acetylthiocholine chloride as substrate incubated for 15 mins by Ellman's method relative to control
T1 sequence (whole entry): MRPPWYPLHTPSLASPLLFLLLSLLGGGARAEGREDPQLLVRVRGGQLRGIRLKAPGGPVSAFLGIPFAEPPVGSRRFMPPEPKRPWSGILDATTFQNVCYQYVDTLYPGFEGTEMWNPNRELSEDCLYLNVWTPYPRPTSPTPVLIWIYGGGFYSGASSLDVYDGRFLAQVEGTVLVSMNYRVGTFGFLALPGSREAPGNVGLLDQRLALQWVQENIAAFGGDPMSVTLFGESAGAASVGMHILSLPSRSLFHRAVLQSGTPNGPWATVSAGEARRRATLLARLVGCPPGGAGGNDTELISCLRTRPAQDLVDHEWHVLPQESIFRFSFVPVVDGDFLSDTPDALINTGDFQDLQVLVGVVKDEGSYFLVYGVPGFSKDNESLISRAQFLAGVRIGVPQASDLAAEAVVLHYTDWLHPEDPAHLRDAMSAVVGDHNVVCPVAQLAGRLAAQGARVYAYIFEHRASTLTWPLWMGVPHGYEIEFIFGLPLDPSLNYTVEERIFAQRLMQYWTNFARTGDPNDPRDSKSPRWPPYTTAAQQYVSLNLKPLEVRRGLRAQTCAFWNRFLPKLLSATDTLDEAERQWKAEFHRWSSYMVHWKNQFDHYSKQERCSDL

[2] = biological target: Butyrylcholinesterase (Rattus norvegicus) (UniProt Q9JKC1); assay: Inhibition of rat serum BChE at 50 uM using butyrylthiocholine chloride as substrate incubated for 15 mins by Ellman's method relative to control
[3] = biological target: Acetylcholinesterase (Electrophorus electricus) (UniProt O42275); assay: Inhibition of electric eel AChE at 50 uM using acetylthiocholine chloride as substrate incubated for 15 mins by Ellman's method relative to control
[4] = biological target: Cholinesterase (Equus caballus) (UniProt P81908); assay: Inhibition of equine serum BChE at 50 uM using butyrylthiocholine chloride as substrate incubated for 15 mins by Ellman's method relative to control
[5] = biological target: T2, Acetylcholinesterase (Rattus norvegicus, UniProt P37136); assay: Inhibition of rat cortex homogenate AChE using acetylthiocholine chloride as substrate incubated for 15 mins by Ellman's method
T2 sequence (P37136 whole entry): T1 sequence (whole entry)

[6] = biological target: T3, Amine oxidase [flavin-containing] B (Homo sapiens, UniProt P27338); assay: Inhibition of human recombinant MAO-B expressed in baculovirus infected BTI insect cells using kynuramine as substrate after 30 mins by fluorescence assay; type: cell-based
T3 sequence (P27338 whole entry): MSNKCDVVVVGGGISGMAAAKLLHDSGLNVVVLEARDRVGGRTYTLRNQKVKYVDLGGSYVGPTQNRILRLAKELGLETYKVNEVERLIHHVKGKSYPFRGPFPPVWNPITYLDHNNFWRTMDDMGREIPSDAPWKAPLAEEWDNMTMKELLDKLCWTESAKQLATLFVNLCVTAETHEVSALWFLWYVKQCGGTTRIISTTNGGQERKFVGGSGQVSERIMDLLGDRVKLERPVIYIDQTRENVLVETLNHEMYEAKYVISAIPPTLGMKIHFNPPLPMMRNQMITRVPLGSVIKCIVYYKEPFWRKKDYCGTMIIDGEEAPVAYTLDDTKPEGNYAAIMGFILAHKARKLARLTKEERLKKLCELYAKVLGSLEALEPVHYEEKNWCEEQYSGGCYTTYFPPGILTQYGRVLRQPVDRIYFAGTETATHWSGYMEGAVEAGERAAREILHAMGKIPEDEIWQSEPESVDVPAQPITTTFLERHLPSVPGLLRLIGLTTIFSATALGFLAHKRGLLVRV

[7] = biological target: Cholinesterase (Equus caballus, UniProt P81908); assay: Inhibition of equine serum BChE using butyrylthiocholine chloride as substrate incubated for 15 mins by Ellman's method
[8] = biological target: Acetylcholinesterase (Electrophorus electricus, UniProt O42275); assay: Inhibition of electric eel AChE using acetylthiocholine chloride as substrate incubated for 15 mins by Ellman's method
[9] = biological target: Butyrylcholinesterase (Rattus norvegicus, UniProt Q9JKC1); assay: Inhibition of rat serum BChE using butyrylthiocholine chloride as substrate incubated for 15 mins by Ellman's method
[10] = biological target: Cholinesterase (Homo sapiens, UniProt P06276); assay: Inhibition of human serum BChE using butyrylthiocholine chloride as substrate incubated for 15 mins by Ellman's method
[11] = Effective permeability of the compound at 100 ug/ml by PAMPA-BBB assay
[12] = biological target: Acetylcholinesterase (Homo sapiens, UniProt P22303); assay: Inhibition of human erythrocyte AChE using acetylthiocholine chloride as substrate incubated for 15 mins by Ellman's method
[13] = biological target: Acetylcholinesterase (Electrophorus electricus) (UniProt O42275); assay: Mixed-type inhibition of electric eel AChE at 0.5 to 2 uM using acetylthiocholine chloride as substrate by Lineweaver-Burk plot analysis
[14] = Selectivity index, ratio of IC50 for equine serum BChE to IC50 for electric eel AChE
[15] = tested on: SH-SY5Y; assay: Cytotoxicity against human SH-SY5Y cells assessed as decrease in cell viability at 100 uM after 24 hrs by MTT assay; type: cell-based
[16] = biological target: T4, Amine oxidase [flavin-containing] A (Homo sapiens, UniProt P21397); assay: Inhibition of human recombinant MAO-A expressed in baculovirus infected BTI insect cells at 20 uM using kynuramine as substrate after 30 mins by fluorescence assay relative to control; conditions: 0.5 h
T4 sequence (P21397 whole entry): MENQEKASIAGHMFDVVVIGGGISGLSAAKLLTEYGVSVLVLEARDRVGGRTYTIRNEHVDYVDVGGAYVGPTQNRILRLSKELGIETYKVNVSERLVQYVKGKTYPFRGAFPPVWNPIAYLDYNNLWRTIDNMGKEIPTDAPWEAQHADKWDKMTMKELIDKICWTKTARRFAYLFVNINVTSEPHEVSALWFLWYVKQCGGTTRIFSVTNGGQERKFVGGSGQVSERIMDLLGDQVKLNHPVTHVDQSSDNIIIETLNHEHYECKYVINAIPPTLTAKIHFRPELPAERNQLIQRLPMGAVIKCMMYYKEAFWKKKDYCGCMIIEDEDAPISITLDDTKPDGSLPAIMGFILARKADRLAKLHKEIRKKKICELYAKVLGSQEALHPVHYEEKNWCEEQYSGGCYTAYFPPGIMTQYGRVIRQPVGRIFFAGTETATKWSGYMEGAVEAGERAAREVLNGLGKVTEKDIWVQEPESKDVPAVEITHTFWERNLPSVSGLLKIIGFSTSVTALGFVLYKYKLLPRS

[17] = tested on: SH-SY5Y; assay: Cytotoxicity against human SH-SY5Y cells assessed as decrease in cell viability up to 10 uM after 24 hrs by MTT assay; type: cell-based

Sequence of Acetylcholinesterase (Electrophorus electricus) (O42275 24-633 limits assumed): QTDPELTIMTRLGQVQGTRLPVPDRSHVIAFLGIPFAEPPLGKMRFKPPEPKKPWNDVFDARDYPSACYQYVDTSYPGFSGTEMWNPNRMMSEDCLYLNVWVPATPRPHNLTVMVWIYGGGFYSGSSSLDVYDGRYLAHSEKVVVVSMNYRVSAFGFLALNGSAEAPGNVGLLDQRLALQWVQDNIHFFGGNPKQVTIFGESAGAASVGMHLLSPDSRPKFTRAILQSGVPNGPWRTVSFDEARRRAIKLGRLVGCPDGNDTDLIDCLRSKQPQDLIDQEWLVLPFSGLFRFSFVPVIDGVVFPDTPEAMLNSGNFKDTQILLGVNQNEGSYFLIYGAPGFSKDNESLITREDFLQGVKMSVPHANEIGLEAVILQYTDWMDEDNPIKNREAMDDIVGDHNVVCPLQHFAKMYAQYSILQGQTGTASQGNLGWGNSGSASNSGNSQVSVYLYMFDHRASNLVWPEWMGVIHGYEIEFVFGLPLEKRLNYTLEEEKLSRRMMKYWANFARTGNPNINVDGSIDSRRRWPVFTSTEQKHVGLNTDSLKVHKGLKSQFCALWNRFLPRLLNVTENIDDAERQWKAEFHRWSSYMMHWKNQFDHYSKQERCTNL
Sequence of Cholinesterase (Homo sapiens, UniProt P06276) (P06276 whole entry): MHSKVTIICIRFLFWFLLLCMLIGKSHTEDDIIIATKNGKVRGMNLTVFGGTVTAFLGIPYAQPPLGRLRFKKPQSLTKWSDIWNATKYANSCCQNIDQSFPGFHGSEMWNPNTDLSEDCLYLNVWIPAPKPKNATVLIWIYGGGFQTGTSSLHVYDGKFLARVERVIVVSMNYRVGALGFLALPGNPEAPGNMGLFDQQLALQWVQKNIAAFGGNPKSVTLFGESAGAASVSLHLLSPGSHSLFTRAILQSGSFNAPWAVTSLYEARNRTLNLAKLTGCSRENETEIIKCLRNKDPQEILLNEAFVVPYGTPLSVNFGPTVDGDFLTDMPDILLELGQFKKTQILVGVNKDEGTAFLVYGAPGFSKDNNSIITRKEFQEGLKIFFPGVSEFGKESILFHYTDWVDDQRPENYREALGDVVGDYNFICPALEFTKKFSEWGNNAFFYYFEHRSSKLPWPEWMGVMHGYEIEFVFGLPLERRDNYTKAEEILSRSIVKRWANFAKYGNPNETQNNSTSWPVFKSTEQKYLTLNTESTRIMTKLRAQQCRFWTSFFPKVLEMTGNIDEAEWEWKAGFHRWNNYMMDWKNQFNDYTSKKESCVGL
Sequence of Cholinesterase (Equus caballus, UniProt P81908) (P81908 whole entry): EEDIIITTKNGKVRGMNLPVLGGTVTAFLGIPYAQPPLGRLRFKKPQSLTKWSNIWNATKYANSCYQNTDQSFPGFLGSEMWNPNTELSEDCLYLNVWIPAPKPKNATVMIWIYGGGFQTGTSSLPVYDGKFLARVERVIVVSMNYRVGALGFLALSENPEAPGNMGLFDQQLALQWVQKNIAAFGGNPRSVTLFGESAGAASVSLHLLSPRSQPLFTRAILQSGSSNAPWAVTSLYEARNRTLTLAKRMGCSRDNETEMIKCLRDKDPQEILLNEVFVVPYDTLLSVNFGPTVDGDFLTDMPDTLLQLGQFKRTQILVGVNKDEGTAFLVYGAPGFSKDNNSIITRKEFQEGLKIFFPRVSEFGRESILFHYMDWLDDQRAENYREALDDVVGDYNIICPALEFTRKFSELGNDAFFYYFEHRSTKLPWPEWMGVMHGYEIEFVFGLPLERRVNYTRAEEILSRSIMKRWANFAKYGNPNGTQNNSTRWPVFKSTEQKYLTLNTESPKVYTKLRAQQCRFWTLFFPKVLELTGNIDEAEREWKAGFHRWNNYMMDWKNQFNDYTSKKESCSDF
Sequence of Cholinesterase (Equus caballus) (P81908 whole entry): as above
Sequence of Butyrylcholinesterase (Rattus norvegicus) (Q9JKC1 as listed by the source): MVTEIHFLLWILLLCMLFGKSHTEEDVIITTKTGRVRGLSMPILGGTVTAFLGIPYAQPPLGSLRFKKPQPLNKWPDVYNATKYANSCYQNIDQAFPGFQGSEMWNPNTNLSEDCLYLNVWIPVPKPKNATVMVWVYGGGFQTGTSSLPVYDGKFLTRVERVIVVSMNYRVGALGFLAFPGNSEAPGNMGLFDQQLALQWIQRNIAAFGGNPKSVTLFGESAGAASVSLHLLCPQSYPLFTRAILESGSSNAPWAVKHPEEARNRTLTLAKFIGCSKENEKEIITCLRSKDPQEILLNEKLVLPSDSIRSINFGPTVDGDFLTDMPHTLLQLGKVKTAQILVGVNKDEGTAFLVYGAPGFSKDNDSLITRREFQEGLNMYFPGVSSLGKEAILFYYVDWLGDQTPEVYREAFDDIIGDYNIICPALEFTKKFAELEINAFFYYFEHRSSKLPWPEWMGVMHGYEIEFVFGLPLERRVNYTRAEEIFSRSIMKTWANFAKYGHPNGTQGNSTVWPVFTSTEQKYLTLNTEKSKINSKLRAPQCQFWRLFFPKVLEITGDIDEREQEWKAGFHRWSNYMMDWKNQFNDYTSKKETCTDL
Sequence of Butyrylcholinesterase (Q9JKC1 whole entry): as the sequence (Q9JKC1 as listed by the source) above
Sequence of Acetylcholinesterase (Homo sapiens, UniProt P22303) (P22303 whole entry): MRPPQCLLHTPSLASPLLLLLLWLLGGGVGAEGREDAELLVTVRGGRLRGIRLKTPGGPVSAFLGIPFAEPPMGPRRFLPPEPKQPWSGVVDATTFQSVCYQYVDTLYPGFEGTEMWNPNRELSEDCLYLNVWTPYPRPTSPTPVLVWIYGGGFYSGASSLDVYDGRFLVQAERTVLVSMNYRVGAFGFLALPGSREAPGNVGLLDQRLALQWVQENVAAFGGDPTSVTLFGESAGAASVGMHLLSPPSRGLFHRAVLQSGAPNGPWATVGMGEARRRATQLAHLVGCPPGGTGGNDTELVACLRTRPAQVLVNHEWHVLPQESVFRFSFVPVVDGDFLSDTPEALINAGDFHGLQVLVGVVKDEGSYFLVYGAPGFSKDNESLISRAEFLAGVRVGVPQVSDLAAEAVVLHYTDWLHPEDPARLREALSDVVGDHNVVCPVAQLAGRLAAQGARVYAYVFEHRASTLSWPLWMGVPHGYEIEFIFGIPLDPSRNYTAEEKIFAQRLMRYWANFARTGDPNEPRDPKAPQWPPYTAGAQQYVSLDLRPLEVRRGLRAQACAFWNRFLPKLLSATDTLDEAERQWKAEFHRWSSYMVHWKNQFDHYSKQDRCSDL
Sequence of Acetylcholinesterase (Electrophorus electricus, UniProt O42275) (O42275 whole entry): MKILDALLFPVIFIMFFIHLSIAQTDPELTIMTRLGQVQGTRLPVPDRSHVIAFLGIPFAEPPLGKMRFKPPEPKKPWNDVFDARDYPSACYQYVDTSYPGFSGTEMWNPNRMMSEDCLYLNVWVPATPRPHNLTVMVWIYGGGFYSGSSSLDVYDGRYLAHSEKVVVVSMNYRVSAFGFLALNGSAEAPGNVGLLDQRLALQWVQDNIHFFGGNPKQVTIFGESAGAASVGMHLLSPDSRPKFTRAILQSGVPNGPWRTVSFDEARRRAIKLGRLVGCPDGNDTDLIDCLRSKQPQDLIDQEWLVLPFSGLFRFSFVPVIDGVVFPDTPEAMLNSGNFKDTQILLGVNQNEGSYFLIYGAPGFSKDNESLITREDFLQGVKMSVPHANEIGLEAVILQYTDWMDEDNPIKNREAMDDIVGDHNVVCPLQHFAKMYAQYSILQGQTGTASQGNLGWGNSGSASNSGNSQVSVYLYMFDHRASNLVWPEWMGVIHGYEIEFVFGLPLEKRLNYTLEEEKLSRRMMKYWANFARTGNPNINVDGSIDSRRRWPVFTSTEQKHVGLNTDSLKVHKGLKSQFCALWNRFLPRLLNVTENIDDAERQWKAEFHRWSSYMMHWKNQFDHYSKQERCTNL

SMILES | inhibition [1] | inhibition [2] | inhibition [3] | inhibition [4] | IC50 [5] | IC50 [6] | IC50 [7] | IC50 [8] | IC50 [9] | IC50 [10] | Papp at 100 ug/ml [11] | IC50 [12] | inhibition [13] | Ratio IC50 [14] | Activity [15] | inhibition at 20 µM [16] | Activity [17]
O=C1NC(=O)c2ccccc21 | < 5% | < 5% | < 5% | < 5% | – | – | – | – | – | – | – | – | – | – | – | – | –
C#CCN(CCCN1C(=O)c2ccccc2C1=O)Cc1ccccc1 | – | – | – | – | 270 nM | 2600 nM | 2500 nM | 840 nM | 2200 nM | 3800 nM | 26 ×10⁻⁶ cm/s | 1200 nM | Active | 3 | 86.7% | < 5% | Non-Toxic
